One series deals with normal rats. The experiment in a line: Identification of non-toxic doses of MSC (survival, weight loss) in normal rats. Type of series: in vivo, adult Fisher rats. Particulars: for animals surviving treatment: 21 days. As for the experimental part: This example describes the identification of non-toxic doses for the use of selenium. To illustrate this embodiment, different groups of adult Fisher rats were administered various doses of selenium for 21 days and survival of rats was monitored. Each group had 6 rats and each exempt group was repeated 3-4 times. […] Thus, for evaluation of the protective effect of MSC against chemotherapy induced toxicity, the dose and schedule of MSC used was 0.75 mg/rat/d up to 21 days orally.
Bladders were removed and fixed in formalin.

A further series deals with rat bladder. The following applies: MSC 0.75 mg/rat/d orally; for bladder histology (hemorrhage): 24 hrs after cyclophosphamide 150 mg/kg×1 i.v., first dose 14 days before, hematoxylin-eosin sections, FIG. 2. The text has this:
Bladders were removed and fixed in formalin. Paraffin embedded sections were obtained and stained by hematoxylin-eosin staining by standard methods.

A further series deals with rats. The following applies: days 30 and 45 after cyclophosphamide 100 mg/kg i.v.×1; MSC 0.75 mg/rat/d×21, first dose 14 days before; FIG. 4.
Series [1] concerns human squamous cell carcinoma of head and neck tumor xenografts (A253). Description: Anti-tumor activity in A253 xenografts. Type of series: in vivo. The following applies: A253 xenografts in nude mice; cyclophosphamide 100 mg/kg×1, i.v., alone or in combination with MSC.
The mark [2] stands for this setting: up to 0.75 mg/rat/d×21 MSC, adult Fisher rats.

Structures are written as SMILES.

Consider `C[Se]C[C@H](N)C(=O)O` [MSC, 5-methylselenocysteine], for which the weight loss is reported as 7.4±2.4 in the series on normal rats (0.75 mg/rat/d MSC orally up to 21 days, Fisher rats 120-180 g, stated as less than 10% of total body weight) and “less than 5%” with normal rats (setting [2]). Moreover, the animals surviving treatment in the series with normal rats (1 mg MSC dose, adult Fisher rats) is recorded as 75%; with normal rats (1.25 mg MSC dose, adult Fisher rats) it was 0%. Besides, the lethality entry in the series with normal rats (setting [2]) is on record as “no lethality”. Further, in the series with normal rats (setting [2]), the toxicity result is listed as “not toxic”. The “bladder histology (hemorrhage)” value in the series on rat bladder is recorded as “no change”.
Regarding `O=P1(N(CCCl)CCCl)NCCCO1` (centres unmarked) [cyclophosphamide], in the series with rats, the “regrowth of hair (alopecia)” value was “only partial recovery”. Moreover, the Tumor growth inhibition in series [1] is given as 35%. Moreover, in the series with rat bladder (4 hrs after cyclophosphamide 150 mg/kg×1 i.v., FIG. 3), the bladder mucosal edema result is “acute mucosal edema”. The “bladder histology (hemorrhage)” value in the series with rat bladder is “severe hemorrhagic cystitis”.

The record behind these values is patent US7534818B1 (priority 2003, dated 2009).
